Substitutions are numbered along the chain they refer to.
How the values were obtained:
Assay type in all cases: biochemical
[1] = molecular target: T1, drSLC38A9 (drSLC38A9^71-549) (Danio rerio, UniProt Q08BA4, P79A/S80A/H81A/E82A/Y85A/N227Q/N235Q/N252Q/N263Q); assay: [3H]leucine uptake in proteoliposomes, filtration; conditions: 0.5 uM labelled compound, pH 5.0 assay buffer, room temperature; with or without 200 uM arginine
T1 construct: gene slc38a9; residues 71-549 (N-plug kept); N-terminal His8-thrombin tag removed; Sf-9; liposomes; the printed 5A DNA also starts at residue 71
T1 sequence (Q08BA4 71-549 P79A/S80A/H81A/E82A/Y85A/N227Q/N235Q/N252Q/N263Q): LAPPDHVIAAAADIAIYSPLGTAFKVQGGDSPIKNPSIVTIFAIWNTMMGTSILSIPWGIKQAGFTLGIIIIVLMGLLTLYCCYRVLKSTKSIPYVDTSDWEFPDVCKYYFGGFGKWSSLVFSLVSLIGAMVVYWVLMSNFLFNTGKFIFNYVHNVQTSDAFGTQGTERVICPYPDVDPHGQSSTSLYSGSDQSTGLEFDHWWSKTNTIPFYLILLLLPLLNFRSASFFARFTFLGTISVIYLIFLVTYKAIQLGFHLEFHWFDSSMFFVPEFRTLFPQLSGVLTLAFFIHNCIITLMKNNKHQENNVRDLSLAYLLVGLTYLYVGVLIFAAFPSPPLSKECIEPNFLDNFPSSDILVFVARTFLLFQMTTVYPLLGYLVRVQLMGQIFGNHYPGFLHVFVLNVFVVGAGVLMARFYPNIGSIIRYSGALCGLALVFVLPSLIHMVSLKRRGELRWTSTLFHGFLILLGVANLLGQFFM

[2] = molecular target: T2, drSLC38A9^97-549 (N-terminal deletion, without N-plug) (Danio rerio, UniProt Q08BA4, N227Q/N235Q/N252Q/N263Q); assay: [3H]leucine uptake in proteoliposomes, filtration; conditions: 0.5 uM labelled compound, pH 5.0 assay buffer, room temperature; with or without 200 uM arginine
T2 construct: gene slc38a9; residues 97-549 (N-plug deleted); N-terminal His8-thrombin tag removed; Sf-9; liposomes
T2 sequence (Q08BA4 97-549 N227Q/N235Q/N252Q/N263Q): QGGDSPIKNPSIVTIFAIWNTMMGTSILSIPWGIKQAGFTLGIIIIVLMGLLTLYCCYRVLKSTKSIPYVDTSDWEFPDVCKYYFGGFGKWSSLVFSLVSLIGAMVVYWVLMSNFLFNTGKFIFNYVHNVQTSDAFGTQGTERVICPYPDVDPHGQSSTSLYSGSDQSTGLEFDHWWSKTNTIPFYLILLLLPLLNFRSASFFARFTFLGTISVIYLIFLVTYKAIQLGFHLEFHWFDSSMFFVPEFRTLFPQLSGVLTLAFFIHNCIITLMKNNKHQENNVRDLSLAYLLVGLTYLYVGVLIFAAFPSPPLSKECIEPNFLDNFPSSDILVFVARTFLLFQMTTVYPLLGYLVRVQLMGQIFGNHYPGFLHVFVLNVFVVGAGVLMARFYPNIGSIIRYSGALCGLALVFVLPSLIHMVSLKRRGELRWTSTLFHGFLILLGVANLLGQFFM

[3] = molecular target: T3, drSLC38A9 (drSLC38A9^71-549) (Danio rerio, UniProt Q08BA4, N227Q/N235Q/N252Q/N263Q); assay: [3H]arginine uptake in proteoliposomes, filtration, […] min; conditions: outside pH 7.4, inside pH 5.0, room temperature; 0.5 uM labelled compound
T3 construct: gene slc38a9; residues 71-549 (N-plug kept); N-terminal His8-thrombin tag removed; Sf-9; liposomes; the printed 5A DNA also starts at residue 71
T3 sequence (Q08BA4 71-549 N227Q/N235Q/N252Q/N263Q): T1 sequence (Q08BA4 71-549 P79A/S80A/H81A/E82A/Y85A/N227Q/N235Q/N252Q/N263Q) with A9P, A10S, A11H, A12E, A15Y

Row | SMILES | [3H]leucine uptake in proteoliposomes, filtration [1] | [3H]leucine uptake in proteoliposomes, filtration [2] | [3H]arginine uptake in proteoliposomes, filtration, 5 min [3]
1 | CC(C)C[C@H](N)C(=O)O [leucine] | The mutant proteins show similar transport capacity for leucine regardless of whether arginine was added | The mutant proteins show similar transport capacity for leucine regardless of whether arginine was added | 
2 | N=C(N)NCCC[C@H](N)C(=O)O [arginine] |  |  | the construct studied structurally here and the wild-type drSLC38A9 transport arginine with similar rates
